Measured values from patent US20070202515A1, “Promac signature application” (PATHOLOGICA, LLC., priority 2005, published 2007).

Columns and labels:
[1] = system: subcutaneous T cell lymphoma; experiment: Phase I trial of CG-47: clinical response of lymphoma; format: in vivo, human
From the text: As part of the clinical development of CG-47, Pathologica performed analysis on blood samples from a subset of patients currently enrolled in a Phase I trial of the safety of the investigational polyamine CG-47. The trial recruited patients who have failed conventional therapy for various lymphomas. The patients received increasing amounts of CG47 for 5 days every three weeks by infusion. The trial was a dose escalation trial in which the first 3 patients received the lowest dose, the next three a higher dose etc. One patient, a person with subcutaneous T cell lymphoma, received 4 doses of 50 mg/m^2 of CG-47 over a 12 week period. […] Relapse of the lymphoma then occurred and a final sample was obtained. Levels of CD14-16++macrophages and the LC5-CI values obtained from the baseline and various subsequent samples are presented in FIG. 10. At presentation the patient had elevated CD14-16% s (˜50%) and a strongly positive LC5-CI score (6.2). After the first cycle of CG-47 the patient entered a clinical remission of their cancer that lasted for the […] of CG-47. During their clinical remission both the CD14-16++ levels and the LC5-CI scores normalized. After the 4th cycle of CG-47 the patient experienced a relapse in their cancer and in the post relapse samples CD14-16++ levels were again elevated (50%) and their LC5-CI value had reverted to a positive score (12.9). […]

CD14-16++macrophages = experiment: Levels of CD14-16++ macrophages in patient blood by flow cytometry; format: in vivo, human; details: same patient
From the text: FIG. 10: LC5-CI and Signature values in cutaneous T-cell lymphoma patient—the percent of CD14 cells also staining with antibodies to CD16 by flow cytometry (filled triangles) is plotted (left y axis) along with the LC5-CI (open triangles) determined for the same samples (right y axis). The samples include the baseline sample obtained prior to the administration of the first cycle of CG-47 (baseline, x axis), the samples obtained prior to the patient receiving the 2nd, 3rd, and 4th cycle of CG-47 (cy2, cy3, and cy4, respectively) and the final sample obtained when the patient experienced a relapse (ReLps).
As part of the clinical development of CG-47, Pathologica performed analysis on blood samples from a subset of patients currently enrolled in a Phase I trial of the safety of the investigational polyamine CG-47. The trial recruited patients who have failed conventional therapy for various lymphomas. The patients received increasing amounts of CG47 for 5 days every three weeks by infusion. The trial was a dose escalation trial in which the first 3 patients received the lowest dose, the next three a higher dose etc. One patient, a person with subcutaneous T cell lymphoma, received 4 doses of 50 mg/m^2 of CG-47 over a 12 week period. […] Relapse of the lymphoma then occurred and a final sample was obtained. […]

[2] = system: G1P3, GPR43, IFIT2, ORM1, TNFSF10; experiment: LC5-CI quantitative RT-PCR classification index on PBMCs; format: in vivo, human; details: same patient
From the text: Aliquots of the RNA preparations were then RT-PCR amplified using quantitative real time methods employing a Light-Cycler^36. The signals obtained were normalized against the signal obtained with primers for β-actin according to the formula Ctactin−Ctgene=NSig where Ct=the threshold cycle for the indicated gene and NSig=the normalized signal.
Therefore, we constructed a “weighted voting” scheme using the methods described by Golub and co-workers^37 for 10 of the most promising primer sets. ALS and control patients were divided into training and test sets and the actin normalized signal for each sample with each primer set was determined as described above. Then the voting weights (modified Rs) were calculated using the test samples according to the formula Mod R=(Mean ALS−Mean CON)/(StDev ALS+StDev CON) calculated using 13 ALS samples & 11 controls.
Next the inflection point or the mid point between the ALS and control samples is calculated according to MID=(MeanALS+MeanCON)/2
Then the signal for the individual primer (ICV) is calculated according to ICV=Mod R(Mean NSig−Mid)
The predictive power of the various primers was then evaluated using the test set of samples. […]

cancer = details: response not universal; cited from earlier work
[3] = ALS patients; cited from earlier work

CCNCCCNC/C=C\CNCCCNCC.Cl.Cl.Cl.Cl [CG-47]
duration of remission ([1]; began after administration of the first dose, 50 mg/m^2, same patient): approximately 10 weeks
clinical response of lymphoma ([1]; one patient, 4 doses of 50 mg/m^2 over a 12 week period by infusion): very significant remission
CD14-16++ levels in post relapse samples (CD14-16++macrophages; relapse after the 4th cycle): 50%
CD14-16++ levels during clinical remission (CD14-16++macrophages; at presentation elevated (~50%)): normalized
LC5-CI value in post relapse samples ([2]; relapse after the 4th cycle): 12.9
LC5-CI scores during clinical remission ([2]; at presentation strongly positive (6.2)): normalized

C/C(=N\N=C(N)N)c1cc(NC(=O)CCCCCCCCC(=O)Nc2cc(/C(C)=N/N=C(N)N)cc(/C(C)=N/N=C(N)N)c2)cc(/C(C)=N/N=C(N)N)c1.Cl.Cl.Cl.Cl [CNI-1493]
efficacy against cancer in clinical trials (cancer): some level of efficacy against cancer

CC(C=NNC(=N)N)=NNC(=N)N.Cl.Cl.O [MGBG, Methylglyoxal bis(guanylhydrazone) dihydrochloride hydrate]
efficacy against cancer in clinical trials (cancer): some level of efficacy against cancer

Nc1nc2ccc(OC(F)(F)F)cc2s1 [Riluzole]
effect on disease progression [3]: only modest slowing of disease progression
